Laboratory results reported in patent US8232407B2, “Nitrogenous heterocyclic compounds with insecticidal activity, and the preparation and use thereof” (East China University of Science and Technology, priority 2008, dated 2012).

Legend:
Type in all cases: in vivo
Details in all cases: in vivo
[1] = test system: Aphis craccivoral; test: Insecticidal activities to aphids, immersion method
Method: (1): Insecticidal Activities to Aphids
Aphis (Aphis craccivoral), which belongs to Homoptera and has a piercing-sucking mouthpart, is a common insect for agricultural plant. Aphis craccivoral was tested by immersion method.
Procedure: exactly weighed various samples were independently added to N,N-dimethylformamide to form 10 g/L stock solutions. The stock solutions were diluted with 0.2 mL/L aqueous Triton X-100 solution to a concentration of 500 ppm. After stably sucking on bean sprout, the wingless adult aphis together with bean sprout were dipped into 500 ppm dilution, taken out after 5 seconds, and the excess dilution was sucked off with bibulous paper. The treated wingless adult aphis was incubated in clean vessel at a constant temperature of 23° C. Each concentration was repeated for 3 times and the control group was treated with 0.2mL/L aqueous Triton X-100 solution. The number of killed aphis was counted after 24 hours and the mortality was to calculated according to the following formula:
(§1) Mortality (%)=(the number of the survival aphis in control group−the number of the survival aphis in the treatment group)/the number of the survival aphis in control group×100%

[2] = test system: Nilaparvata lugens; test: Insecticidal activities to plant hopper, spraying method
Method: as §1
(2): Insecticidal Activities to Plant hopper
Plant hopper (Nilaparvata lugens), which belongs to Homoptera and has a piercing-sucking mouthpart, is a common insect for agricultural plant. Nilaparvata lugens was tested by spraying method.
Procedure: the test compound was exactly formulated with acetone to form solutions having concentrations of 500, 250, 100, 50, 25, 12.5, 6.25, 3.13, 1.57 and 0.79 ppm, respectively. Aqueous acetone solution was used as control. Each treatment was repeated for 3 tumblers (3 times). Two ml of solution was sprayed uniformly to each tumbler with a mini manual sprayer. 10 insects were introduced to every basin 6 hours before spraying. Three series of experiments were conducted. The number of killed insects was counted after 24 hours to calculate the mortality according to the above mentioned formula.

[3] = test system: Pseudaletia separate Walker; test: Insecticidal activities to armyworm, leaf dipping and feeding
Method: as §1
(3): Insecticidal Activities to Armyworm
Armyworm (Pseudaletia separate Walker) was tested by the way of leaf dipping and feeding. The test compound was exactly formulated with acetone into solutions having concentrations of 500, 250, 100, 50, 25, 12.5, 6.25, 3.13 and 1.57 ppm, respectively. Aqueous acetone solution was used as control. Fresh maize leaves were immersed in the solution for 3 seconds, dried at room temperature, and fed to the tested insects. Each treatment was tested with 10 insects and repeated for 3 tumblers (3 times). The number of killed insects was counted after 24 hours to calculate the mortality according to the above mentioned formula.

[4] = test system: Plutella xylostella; test: Insecticidal activities to diamondback moth, feeding dipped leaves
Method: as §1
(4): Insecticidal Activities to Diamondback Moth
Diamondback moth (Plutella xylostella) was tested by the way of feeding dippedleaves. Fresh cabbage leaves were immersed in above mentioned solution for 3 seconds, dried at room temperature, and fed to the tested insects. Each treatment was tested with 10 insects and repeated for 3 tumblers (3 times), while water was used as control. The number of killed insects was counted after 24 hours to calculate the mortality according to the above mentioned formula.

Row | Compound | Aphis craccivoral Mortality (%) 500 ppm [1] | Nilaparvata lugens Mortality (%) 500 ppm [2] | Pseudaletia separate Walker Mortality (%) 500 ppm [3] | Plutella xylostella Mortality (%) 500 ppm [4]
1 | C[N+]1=C(C(=Cc2cc(Br)c(Br)o2)[N+](=O)[O-])N(Cc2ccc(Cl)nc2)CC1.[Cl-] [Compound 253] | 100% | 100% | 100% | 100%
2 | O=[N+]([O-])C(=Cc1ccsc1)C1=NCCN1Cc1ccc(Cl)nc1 [Compound 17] | 100% | 100% | 100% | 100%
3 | Cc1ccc(C=C(C2=NCCN2Cc2ccc(Cl)nc2)[N+](=O)[O-])o1 [Compound 12] | 100% | 100% | 100% | 100%
4 | N#CC(=Cc1ccco1)C1=NCCN1Cc1ccc(Cl)nc1 [Compound 140] | 100% | 100% | 100% | 100%
5 | O=[N+]([O-])C(=Cc1cccs1)C1=NCCCN1Cc1ccc(Cl)nc1 [Compound 61] | 100% | 100% | 100% | 100%
6 | Cc1ccc(C=C(C2=[N+](C)CCN2Cc2ccc(Cl)nc2)[N+](=O)[O-])o1.[Cl-] [Compound 255] | 100% | 100% | 100% | 100%
7 | O=[N+]([O-])C(=Cc1ccc([N+](=O)[O-])s1)C1=NCCCN1Cc1ccc(Cl)nc1 [Compound 63] | 98% | 100% | 100% | 100%
8 | O=[N+]([O-])C(=Cc1cc(Br)cs1)C1=NCCN1Cc1ccc(Cl)nc1 [Compound 22] | 100% | 100% | 100% | 100%
9 | O=[N+]([O-])C(=Cc1cnc[nH]1)C1=NCCN1Cc1ccc(Cl)nc1 [Compound 36] | 98% | 89% | 100% | 100%
10 | CN=C(C(=C(C)c1ccc([N+](=O)[O-])s1)[N+](=O)[O-])N(C)C(C)c1ccc(Cl)nc1 (stereo not shown) [Compound 214] | 98% | 100% | – | –
11 | CN=C(C(=Cc1cccs1)[N+](=O)[O-])N(C)Cc1ccc(Cl)nc1 [Compound 236] | 82% | 79% | – | –
12 | CN=C(C(=Cc1ccc[nH]1)[N+](=O)[O-])N(C)Cc1ccc(Cl)nc1 [Compound 170] | 89% | 34% | – | –
13 | CN=C(C(=Cc1cccs1)[N+](=O)[O-])N(C)Cc1ccc(Cl)nc1 [Compound 166] | 98% | 100% | – | –
14 | CCN=C(C(=Cc1ccoc1)[N+](=O)[O-])N(C)Cc1ccc(Cl)nc1 [Compound 171] | 93% | 100% | – | –
15 | CCN(Cc1cnc(Cl)s1)C(=NC)C(=Cc1ccc[nH]1)[N+](=O)[O-] [Compound 231] | 37% | 76% | – | –
16 | CCN=C(C(=Cc1ccco1)[N+](=O)[O-])N(CC)Cc1ccc(Cl)nc1 [Compound 189] | 86% | 100% | – | –
17 | CCN(Cc1ccc(Cl)nc1)C(=NC)C(=Cc1ccco1)[N+](=O)[O-] [Compound 241] | 68% | 76% | – | –
18 | CN=C(C(=Cc1ccc([N+](=O)[O-])s1)[N+](=O)[O-])N(C)Cc1ccc(Cl)nc1 [Compound 168] | 80% | 90% | – | –
19 | CCN(Cc1cnc(Cl)s1)C(=NC)C(=Cc1ccco1)[N+](=O)[O-] [Compound 225] | 90% | 78% | – | –

Row | Compound | Aphis craccivoral Mortality (%) 500 ppm [1] | Nilaparvata lugens Mortality (%) 500 ppm [2] | Pseudaletia separate Walker Mortality (%) 500 ppm [3] | Plutella xylostella Mortality (%) 500 ppm [4]
20 | CCN(Cc1ccc(Cl)nc1)C(=NC)C(=C(C)c1cccs1)[N+](=O)[O-] [Compound 200] | 100% | 100% | – | –
21 | CN=C(C(=Cc1ccoc1)[N+](=O)[O-])N(C)Cc1ccc(Cl)nc1 [Compound 162] | 100% | 100% | – | –
22 | CCN(C(=NC)C(=Cc1ccc(Cl)o1)[N+](=O)[O-])C(C)c1ccc(Cl)nc1 (stereo not shown) [Compound 208] | 42% | 100% | – | –
23 | CCN=C(C(=Cc1ccc([N+](=O)[O-])s1)[N+](=O)[O-])N(C)Cc1ccc(Cl)nc1 [Compound 176] | 86% | 100% | – | –
24 | CCN(Cc1cnc(Cl)s1)C(=NC)C(=Cc1ccc(Cl)o1)[N+](=O)[O-] [Compound 228] | 100% | 100% | – | –
25 | CCN=C(C(=Cc1ccc(Cl)s1)[N+](=O)[O-])N(C)Cc1ccc(Cl)nc1 [Compound 177] | 87% | 100% | – | –
26 | CCN=C(C(=Cc1ccc(Br)o1)[N+](=O)[O-])N(CC)Cc1ccc(Cl)nc1 [Compound 193] | 89% | 100% | – | –
27 | CN=C(C(=Cc1ccc(Br)o1)[N+](=O)[O-])N(C)Cc1ccc(Cl)nc1 [Compound 165] | 100% | 100% | – | –
28 | CCN=C(C(=Cc1cccs1)[N+](=O)[O-])N(C)Cc1ccc(Cl)nc1 [Compound 175] | 100% | 100% | – | –
29 | CCN(Cc1ccc(Cl)nc1)C(=NC)C(=C(C)c1ccoc1)[N+](=O)[O-] [Compound 196] | 100% | 100% | – | –
30 | CN=C(C(=Cc1ccc([N+](=O)[O-])o1)[N+](=O)[O-])N(C)Cc1ccc(Cl)nc1 [Compound 163] | 100% | 100% | – | –
31 | CCN=C(C(=Cc1ccc([N+](=O)[O-])o1)[N+](=O)[O-])N(CC)Cc1ccc(Cl)nc1 [Compound 191] | 95% | 100% | – | –
32 | CCN=C(C(=Cc1ccc[nH]1)[N+](=O)[O-])N(C)Cc1ccc(Cl)nc1 [Compound 178] | 100% | 100% | – | –
33 | CN=C(C(=Cc1ccc(Cl)s1)[N+](=O)[O-])N(C)Cc1ccc(Cl)nc1 [Compound 169] | 76% | 67% | – | –
34 | CCN(Cc1ccc(Cl)nc1)C(=NC)C(=Cc1ccc(Cl)s1)[N+](=O)[O-] [Compound 187] | 100% | 100% | – | –
35 | CCN(Cc1ccc(Cl)nc1)C(=NC)C(=C(C)c1ccc(Cl)s1)[N+](=O)[O-] [Compound 203] | 100% | 100% | – | –
36 | CCN(Cc1ccc(Cl)nc1)C(=NC)C(=C(C)c1ccc(Br)o1)[N+](=O)[O-] [Compound 199] | 84% | 100% | – | –
37 | CN=C(C(=Cc1ccc[nH]1)[N+](=O)[O-])N(C)Cc1ccc(Cl)nc1 [Compound 240] | 77% | 68% | – | –
38 | CCN(C(=NC)C(=Cc1ccc[nH]1)[N+](=O)[O-])C(C)c1ccc(Cl)nc1 (stereo not shown) [Compound 211] | 73% | 73% | – | –
